Measured values: patent US20230398130A1, “METHODS AND COMPOSITIONS FOR DIFFERENTIATING STEM CELLS” (Massachusetts Institute of Technology, priority 2020, published 2023)

Columns and labels:
ISC-enriched organoids [1] = test: Primary screen, 384-well 2.5-D organoid differentiation (ENR+CD, 6 days, Target Selective Inhibitor Library, vs whole-plate median): ATP (CellTiter-Glo 3D, CTG); conditions: for Dose.FC.CTG (log 2 fold change, ATP): vs plate median
ISC-enriched organoids [2] = test: Primary screen, 384-well 2.5-D organoid differentiation (ENR+CD, 6 days): basal lysozyme secretion (LYZ.NS); type: cell-based, murine; conditions: for Dose.FC.LYZ.NS (log 2 fold change, basal lysozyme secretion): vs plate median
Text: (§1) High-throughput screening.

ISC-enriched organoids [3] = test: Primary screen, 384-well 2.5-D organoid differentiation (ENR+CD, 6 days): carbachol-induced lysozyme secretion (LYZ.S); type: cell-based, murine; conditions: vs plate median
Text: as §1

| SMILES | Z.CTG (standard z score) (ISC-enriched organoids [1]; dose 0.08 uM) | Dose.FC.CTG (log 2 fold change, ATP) (ISC-enriched organoids [1]; dose 0.08 uM) | Z.CTG (standard z score) (ISC-enriched organoids [1]; dose 0.40 uM) | Dose.FC.CTG (log 2 fold change, ATP) (ISC-enriched organoids [1]; dose 0.40 uM) | Z.CTG (standard z score) (ISC-enriched organoids [1]; dose 2.00 uM) | Dose.FC.CTG (log 2 fold change, ATP) (ISC-enriched organoids [1]; dose 2.00 uM) | Z.CTG (standard z score) (ISC-enriched organoids [1]; dose 10.00 uM) | Dose.FC.CTG (log 2 fold change, ATP) (ISC-enriched organoids [1]; dose 10.00 uM) | Z.LYZ.NS (standard z score) (ISC-enriched organoids [2]; dose 0.08 uM) | Dose.FC.LYZ.NS (log 2 fold change, basal lysozyme secretion) (ISC-enriched organoids [2]; dose 0.08 uM) | Z.LYZ.NS (standard z score) (ISC-enriched organoids [2]; dose 0.40 uM) | Dose.FC.LYZ.NS (log 2 fold change, basal lysozyme secretion) (ISC-enriched organoids [2]; dose 0.40 uM) | Z.LYZ.NS (standard z score) (ISC-enriched organoids [2]; dose 2.00 uM) | Dose.FC.LYZ.NS (log 2 fold change, basal lysozyme secretion) (ISC-enriched organoids [2]; dose 2.00 uM) | Z.LYZ.NS (standard z score) (ISC-enriched organoids [2]; dose 10.00 uM) | Dose.FC.LYZ.NS (log 2 fold change, basal lysozyme secretion) (ISC-enriched organoids [2]; dose 10.00 uM) | Dose.FC.LYZ.S (log 2 fold change, carbachol-induced lysozyme secretion) (ISC-enriched organoids [3]; dose 0.08 uM) | Dose.FC.LYZ.S (log 2 fold change, carbachol-induced lysozyme secretion) (ISC-enriched organoids [3]; dose 0.40 uM) | Dose.FC.LYZ.S (log 2 fold change, carbachol-induced lysozyme secretion) (ISC-enriched organoids [3]; dose 2.00 uM) | Dose.FC.LYZ.S (log 2 fold change, carbachol-induced lysozyme secretion) (ISC-enriched organoids [3]; dose 10.00 uM) |
| --- | --- | --- | --- | --- | --- | --- | --- | --- | --- | --- | --- | --- | --- | --- | --- | --- | --- | --- | --- | --- |
| CCC(=O)Nc1cccc(Oc2nc(Nc3ccc(N4CCN(C)CC4)cc3OC)ncc2Cl)c1 [WZ4003] | 0.896 | 0.375 | 0.413 | 0.173 | 0.180 | 0.076 | −0.043 | −0.018 | 0.644 | 0.074 | −0.359 | −0.041 | −0.151 | −0.017 | −0.850 | −0.098 | 0.117 | −0.034 | −0.035 | −0.142 |
| Cc1cc(-c2ccc(CC(=O)Nc3ccc(-c4cccnc4)cc3)cc2)ccn1 [Wnt-C59 (C59)] | −1.366 | −0.572 | −1.461 | −0.611 | −1.498 | −0.627 | −1.465 | −0.613 | −1.424 | −0.163 | −1.588 | −0.182 | −1.724 | −0.198 | −1.666 | −0.191 | −0.242 | −0.281 | −0.313 | −0.301 |
| COCC[n+]1c2c(n(Cc3cnccn3)c1C)C(=O)c1ccccc1C2=O.[Br-] [YM155 (Sepantronium Bromide)] | 0.531 | 0.222 | −0.198 | −0.083 | −1.100 | −0.460 | −2.316 | −0.970 | 0.995 | 0.114 | −0.266 | −0.031 | −0.714 | −0.082 | −0.839 | −0.096 | 0.172 | −0.039 | −0.137 | −0.210 |
| C[C@H](NC(=O)Cc1cc(F)cc(F)c1)C(=O)N[C@@H]1C(=O)N(C)c2ccccc2-c2ccccc21 [YO-01027] | 0.528 | 0.221 | −1.135 | −0.475 | −1.363 | −0.571 | −2.464 | −1.032 | 0.443 | 0.051 | 0.739 | 0.085 | −0.699 | −0.080 | −1.369 | −0.157 | 0.105 | −0.058 | −0.020 | −0.184 |
| Cc1cc(C)nc(NS(=O)(=O)c2ccc(NC(=S)NC(=O)COc3ccc(Br)cc3Cl)cc2)n1 [ZCL278] | −2.303 | −0.964 | 0.044 | 0.018 | −0.545 | −0.228 | −0.247 | −0.104 | −0.729 | −0.084 | −0.325 | −0.037 | 0.218 | 0.025 | 0.130 | 0.015 | −0.107 | 0.077 | −0.079 | −0.080 |
| COc1cc2ncnc(Nc3ccc(Cl)cc3F)c2cc1OC [ZM 306416] | −0.190 | −0.080 | −1.155 | −0.483 | −3.135 | −1.312 | −3.559 | −1.490 | 0.912 | 0.105 | −1.942 | −0.223 | −2.531 | −0.291 | −2.395 | −0.275 | 0.006 | −0.288 | −0.403 | −0.431 |
| COc1cc2c(Nc3ccc(NC(=O)c4ccccc4)cc3)ncnc2cc1OCCCN1CCOCC1 [ZM 447439] | 1.222 | 0.512 | 0.725 | 0.304 | 0.552 | 0.231 | −0.574 | −0.240 | 0.896 | 0.103 | 0.932 | 0.107 | 0.456 | 0.052 | −0.695 | −0.080 | 0.171 | 0.108 | 0.074 | −0.132 |
